In one series the test system is miR-155. Briefly: Ribonuclease activity assay, cleavage of miR-155. The class given is biochemical. The settings on record: miRNA 1 µM, DC 20 µM, 37 °C. The protocol:
The ribonuclease activity of DCs was studied under two different buffer conditions: buffer (1) contained 50 mM Tris-HCl, pH 7.0, 200 mM KCl, 1 mM EDTA, which imitates intracellular conditions (e.g., pH and potassium ions concentration) and was used in a number of studies previously; and buffer (2) contained 20 mM Tris-HCl, pH 7.8, 40 mM KCl, 8 mM MgCl2, 1 mM DTT, 0.02 mg/mL BSA, which is recommended for in vitro reactions with RNase H (Figure 3 and Figure 4).
Figure 3 Kinetics of cleavage of 5′-[^32P]-labeled miR-17, miR-18a, miR-155, miR-21 and miR-21_1 by corresponding DCs in the buffer (1), containing 50 mM Tris-HCl, pH 7.0, 200 mM KCl and 1 mM EDTA. (a–e) Radioautographs of 18% denaturing PAAG showing the cleavage products of miR-17, miR-18a, miR-155, miR-21 and miR-21_1, respectively. miRNA (1 µM) and corresponding DC (20 µM) were incubated at 37 °C for 72 h. Lanes Im and T1—imidazole ladder and partial RNA digestion with RNase T1, respectively; control–miRNA was incubated in the absence of the conjugate. The incubation time (in hours) is show at the top. SS gap–single-stranded region of miRNA formed upon hybridization with DC; (f) Kinetics of miRNAs cleavage by DCs depending on the incubation time. Data are presented as mean ± s.e.
Figure 4 Kinetics of cleavage of 5′-[^32P]-labeled miR-17, miR-18a, miR-155, miR-21, and miR-21_1 by corresponding DCs in the buffer (2), containing 20 mM Tris-HCl, pH 7.8, 40 mM KCl, 8 mM MgCl2, 1 mM DTT, 0.02 mg/mL BSA. (a–e) Radioautographs of 18% denaturing PAAG showing the cleavage products of miR-17, miR-18a, miR-155, miR-21 and miR-21_1, respectively. miRNA (1 µM) and corresponding DC (20 µM) were incubated at 37 °C for 72 h. Lanes Im and T1–imidazole ladder and partial RNA digestion with RNase T1, respectively; control–miRNA was incubated in the absence of the conjugate. The incubation time (in hours) is shown at the top. SS gap–single-stranded region of miRNA formed upon hybridization with DC; (f) Kinetics of miRNAs cleavage by DCs. Data are presented as mean ± s.e.
The reaction mixture (10 µL) contained 800 cpm (Cherenkov’s counting) of [^32P]-miRNA, 1 μM unlabeled miRNA, one of the conjugates at a concentration 10 or 20 μM and one of the buffers: 50 mM Tris-HCl, pH 7.0, 200 mM KCl, 1 mM EDTA–buffer (1) or 20 mM Tris-HCl, pH 7.8, 40 mM KCl, 8 mM MgCl2, 1 mM DTT, 0.02 mg/mL BSA–buffer (2). The mixture was incubated at 37 °C for 0–72 h and quenched by precipitation of RNA with 2% LiClO4 in acetone (90 µL). RNA was collected by centrifugation and dissolved in loading buffer (8 M urea, 0.025% bromophenol blue, 0.025% xylene cyanol). RNA cleavage products were analyzed in 18% PAAG/8M urea using TBE (100 mM Tris-borate, pH 8.3, 2 mM EDTA) as running buffer. To identify cleavage sites, an imidazole and T1-ladders produced by partial RNA cleavage with 2 M imidazole buffer (pH 7.0) and with RNase T1 [68], respectively, were run in parallel. To obtain quantitative data, gels were dried and analyzed using Molecular Imager FX. The total extent of RNA cleavage and the extent of RNA cleavage at each individual site were determined by using Quantity One software v.4.1 (Bio-Rad, Hercules, CA, USA).

Another series relates to miR-21. Briefly: Gel-retardation assay, hybridization with miR-21. The format is binding. To be noted: 37 °C, 45 min, mean of 3. The source says: We carried out a comparative analysis of the hybridization properties of the developed DCs with the corresponding SCs, which were the products of the first stage of the DCs synthesis. As discussed above, each SC consisted of the corresponding oligonucleotide A, which was complementary to the 5′-region of the matching miRNA target, and the catalytic peptide [LRLRG]2, attached to the 5′-end of this oligonucleotide via a thiohexyl linker (linker 2). […] Indeed, the level of binding of DCs to their miRNA targets reached 96, 90, 75, 55% at equimolar concentration (1 μM), and 99, 96, 92 and 69% at 5-fold excess of DCs over miR-17, miR-18a, miR-21 and miR-155, respectively (Figure 2). […]
The reaction mixture (4 µL) containing 50 mM Tris-HCl, pH 7.0, 200 mM KCl and 1 mM EDTA, 100 cpm (Cherenkov’s counting) of [^32P]-miRNA, 1 μM unlabeled miRNA, a conjugate at a concentration ranging from 0.1 to 10 μM was incubated at 37 °C for 45 min and quenched by adding of a loading buffer (20% ficoll, 0.025% bromophenol blue, 0.025% xylene cyanol). […] Formation of the complex miRNA/conjugate was analyzed by electrophoresis in 15% native PAAG at 4 °C. The gels were analyzed using Molecular Imager FX. The extent of binding of conjugate to miRNA was determined as a ratio of radioactivity measured in the complex to the total radioactivity applied onto the gel lane.

Turning to “ACCCCTAT–linker 1–[GRLRL]2–linker 2–TTAGCATTAA [miRNA-155-DC, Dual oligonucleotide-peptide conjugate targeted to miR-155: catalytic peptide [LRLRG]2 between two 2-aminoadenine-containing oligodeoxyribonucleotides]”, the “Total Cleavage” value in the series with miR-155 (buffer (1) 50 mM Tris-HCl pH 7.0, 200 mM KCl, 1 mM EDTA, 2 h) is on record as 0%; in the series on miR-155 (buffer (1) 50 mM Tris-HCl pH 7.0, 200 mM KCl, 1 mM EDTA, 6 h), 0%; with miR-155 (buffer (1) 50 mM Tris-HCl pH 7.0, 200 mM KCl, 1 mM EDTA, 24 h), 0,5%; in the series with miR-155 (buffer (1) 50 mM Tris-HCl pH 7.0, 200 mM KCl, 1 mM EDTA, 48 h) it was 16%; in the series with miR-155 (buffer (1) 50 mM Tris-HCl pH 7.0, 200 mM KCl, 1 mM EDTA, 72 h), 21%; with miR-155 (buffer (2) 20 mM Tris-HCl pH 7.8, 40 mM KCl, 8 mM MgCl2, 1 mM DTT, 0.02 mg/mL BSA, 2 h) it was 15%. Moreover, the “Total Cleavage” value in the series with miR-155 (buffer (2) 20 mM Tris-HCl pH 7.8, 40 mM KCl, 8 mM MgCl2, 1 mM DTT, 0.02 mg/mL BSA, 6 h) is recorded as 41%; in the series with miR-155 (buffer (2) 20 mM Tris-HCl pH 7.8, 40 mM KCl, 8 mM MgCl2, 1 mM DTT, 0.02 mg/mL BSA, 24 h), 56%; in the series on miR-155 (buffer (2) 20 mM Tris-HCl pH 7.8, 40 mM KCl, 8 mM MgCl2, 1 mM DTT, 0.02 mg/mL BSA, 48 h), 57%; in the series on miR-155 (buffer (2) 20 mM Tris-HCl pH 7.8, 40 mM KCl, 8 mM MgCl2, 1 mM DTT, 0.02 mg/mL BSA, 72 h), 72%. Also, the “rise of Kobs in buffer (2) compared to Kobs in buffer (1)” value in the series with miR-155 came to 6 fold.

Consider “TCAACATC–linker 1–[GRLRL]2–linker 2–GATAAGCTA [miRNA-21-DC, Dual oligonucleotide-peptide conjugate targeted to miR-21: catalytic peptide [LRLRG]2 between two 2-aminoadenine-containing oligodeoxyribonucleotides]”, for which the “level of binding of DC to miRNA target” value is listed as 92% with miR-21 (5-fold excess of DC over miRNA (1 µM), same buffer) and 75% in the series with miR-21 (equimolar, DC 1 µM : miRNA 1 µM, 50 mM Tris-HCl pH 7.0, 200 mM KCl, 1 mM EDTA).

For the origin of these results see article PMC7287882, “Dual miRNases for Triple Incision of miRNA Target: Design Concept and Catalytic Performance” (Molecules, 2020).
